By viability, T/C is commonly meant the result in the treated group divided by that in the control group, in per cent. The term IC50 denotes the midpoint of a concentration-inhibition curve.

Each structure is given as a SMILES string. Values joined by “and” are separate entries in the source; they are usually repeats but may differ in a detail not shown here. Equal values may be shown once.

This assay deals with 994946-033-R-J1-PDC complex spheroid viability. Briefly: Anticancer human tumor 994946-033-R-J1-PDC patient-derived melanoma cell line growth inhibition [POLQ]. The note with it: for viability, T/C: stronger effect = lower value; for IC50: curve of compound. The protocol:
Multicellular complex tumor spheroid response to Polymerase (POL) inhibitors (novobiocin, ART-558, RP6685) in combination with a variety of drugs and investigational agents in selected tumor cell lines
The POL inhibitors (novobiocin, ART-558, and RP6685) were evaluated both individually and in combination with standard of care and investigational anticancer small molecules within a complex spheroid model of solid tumors. . Complex spheroids include a stromal component modeled by human endothelial cells (HUVEC) and fibroblasts modeled by human mesenchymal stem cells (MSCs). The concentration ranges selected for each drug and investigational agent were based upon clinically achievable concentrations if the clinical Cmax of the agent was known.
Compounds. The drugs and investigational agents: novobiocin (NSC847541), ART-558 (NSC835418), RP-6685 (NSC848927), peposertib (NSC802822), ceralasertib (NSC780249), elimusertib (NSC800525), camonsertib (NSC841442), AZD-1390 (NSC803789), olaparib (NSC753686), talazoparib (NSC767125), rucaparib (NSC756644), sotorasib (NSC818433), MRTX-1133 (NSC836407), SN-38 (NSC673596), topotecan (NSC609699), epotoside (NSC141540), doxorubicin (NSC123127), gemcitabine (NSC613327), 5-fluorouracil (NSC19893), paclitaxel (NSC125973), vemurafenib (NSC761431), MSA-2 (NSC828583), SN-011 (NSC837082), adavosertib (NSC754352), prexasertib (NSC758257), carboplatin (NSC241240) and oxaliplatin (NSC266046), were obtained from the National Cancer Institute (NCI) Developmental Therapeutics Program Chemical Repository (21). The FDA-approved anticancer drug set is available from the Developmental Therapeutics Program at https://dtp.cancer.gov/organization/dscb/obtaining/. […] The stock solutions were prepared in dimethyl sulfoxide (DMSO, Sigma-Aldrich, St. Louis, MO, cat. D2650), except for the platinum compounds which were prepared in saline (Quality Biological, Gaithersburg, MD, cat. 114-055-101), at 800-fold the tested concentration and stored at -70 degrees C prior to their use. All drugs and investigational agents were tested over a range starting from a high concentration at or near the clinical Cmax and decreasing in half-log increments. If the clinical Cmax for an agent had not been determined, the highest concentration tested was 10 microM, except for SN-38, which was tested at a high concentration of 1 microM.
Cell Culture. All cells were maintained in an incubator at 37 degrees C and 5% CO2 with 95% humidity. The PDC lines were cultured according to standard operating procedures established by the NCI PDMR (https://pdmr.cancer.gov). Table 3 of the manuscript, lists the cell lines along with the number of the three cell types plated to form the mct-spheroids and media for tumor cell growth. After thawing, all PDC lines, except 997537-175-T-J1-PDC and 415267-285-R-J2-PDC, were cultured in Matrigel-coated flasks prepared with a working solution of 1X Ham's F-12 nutrient mix, without supplementation (Thermo Fisher Scientific, cat. 11765054), 100 U/mL penicillin-streptomycin (Thermo Fisher Scientific, cat. 15140122), and 2.5% Matrigel (Corning Inc., Corning, NY, cat. 354248) for the first three passages. The two PDC lines 997537-175-T-J1-PDC and 415267-285-R-J2-PDC were cultured on uncoated flasks. The 857933-349-R-J2-PDC line was cultured in 6C/Colon 1B media containing advanced DMEM/F-12 (Thermo Fisher Scientific, cat. 12634028), 10 mM HEPES (Thermo Fisher Scientific, cat. 15630080), 1X GlutaMAX supplement (Thermo Fisher Scientific, cat. 35050061), 0.1 mg/mL primocin (InvivoGen, San Diego, CA, cat. ant-pm-2), 10% defined fetal bovine serum, heat inactivated (HyClone Laboratories Inc., Logan, UT, cat. SH30070.03HI), 50% L-WRN conditioned media (ATCC, cat. CRL-3276), 1.25 mM N-Acetyl-L-cysteine (Sigma-Aldrich, cat. A9165), 10 mM nicotinamide (Sigma-Aldrich, cat. N0636), 1X B-27 supplement (Thermo Fisher Scientific, cat. 17504044), 1X N-2 supplement (Thermo Fisher Scientific, cat. […]
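Note: spheroids exposed to drugs for 7 days.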

In the case of `C=CC(=O)N1CCN(c2nc(=O)n(-c3c(C)ccnc3C(C)C)c3nc(-c4c(O)cccc4F)c(F)cc23)C(C)C1` (stereo not given), the IC50 is over 10000 nM. Moreover, the viability, T/C (compound 0.0316 µM) was 127% and 82.1% and 87.4%. The viability, T/C (compound 0.1 µM) is 72.6% and 95.5% and 105%. The viability, T/C (compound 0.316 µM) is 121% and 63.8% and 132%. In addition, where the note is “compound 1 µM”, the viability, T/C is 101% and 104% and 100%. The viability, T/C (compound 3.16 µM) is 102% and 93.9% and 110%. Further, under “compound 10 µM”, the viability, T/C was 120% and 102% and 100%.

Turning to `C=CCn1c(=O)c2cnc(Nc3ccc(N4CCN(C)CC4)cc3)nc2n1-c1cccc(C(C)(C)O)n1`, the IC50 is 691 nM and 608 nM and 651 nM. The viability, T/C (compound 0.00316 µM) was 106% and 121% and 99.1%. The viability, T/C (compound 0.01 µM) is 109% and 114% and 99.8%. Also, under “compound 0.0316 µM”, the viability, T/C is 113% and 106% and 123%. Besides, where the note is “compound 0.1 µM”, the viability, T/C is 105% and 97.1% and 72.5%. Further, the viability, T/C (compound 0.316 µM) was 97.5% and 68.8% and 88.4%. For the same compound, the viability, T/C (compound 1 µM) was 27.4% and 34.9% and 30.9%.

Consider `CC(=O)O[C@H]1C(=O)[C@@]2(C)[C@H]([C@H](OC(=O)c3ccccc3)[C@]3(O)C[C@H](OC(=O)[C@H](O)[C@@H](NC(=O)c4ccccc4)c4ccccc4)C(C)=C1C3(C)C)[C@]1(OC(C)=O)CO[C@@H]1C[C@@H]2O`, for which the IC50 is under 9.49 nM. Besides, where the note is “compound 0.00949 µM”, the viability, T/C was 24.4% and 24.8% and 18.7%. Further, where the note is “compound 0.03 µM”, the viability, T/C is 21.9% and 23.1% and 18.1%. In addition, for the setting “compound 0.0949 µM”, the viability, T/C is 18.5% and 17.9% (2×). Besides, the viability, T/C (compound 0.3 µM) is 17.7% and 11.9% and 15.6%. Further, the viability, T/C (compound 0.949 µM) is 18.8% and 15.4% and 12.7%. Further, the viability, T/C (compound 3 µM) is 11.4% and 13% and 9.5%.

With `CC(C)n1c(=O)n(C)c2cnc3cc(F)c(-c4ccc(OCCCN5CCCCC5)nc4)cc3c21`, the IC50 was 3940 nM and 6870 nM and 4650 nM. In addition, the viability, T/C (compound 0.0316 µM) is 95.4% and 78.5% and 82.5%. Besides, the viability, T/C (compound 0.1 µM) is 86.1% and 90.5% and 82.5%. Besides, for the setting “compound 0.316 µM”, the viability, T/C is 93.8% and 117% and 70.9%. Also, the viability, T/C (compound 1 µM) was 86.5% and 77.2% and 84.3%. Besides, the viability, T/C (compound 3.16 µM) is 56.9% and 68.1% and 62.2%. Moreover, the viability, T/C (compound 10 µM) is 21.2% and 41.8% and 25.7%.

Regarding `CC1COCCN1c1cc(-c2ccnn2C)c2ccnc(-c3ccn[nH]3)c2n1` (stereo not given), the IC50 was 64 nM and 58.7 nM and 43.7 nM. Moreover, the viability, T/C (compound 0.0316 µM) is 68% and 74.9% and 58.3%. In addition, for the setting “compound 0.1 µM”, the viability, T/C was 37.9% and 28.1% (2×). For the same compound, the viability, T/C (compound 0.316 µM) was 24.9% and 25.2% and 20.4%. Besides, the viability, T/C (compound 1 µM) is 17.2% and 25.2% and 29.2%. Besides, the viability, T/C (compound 3.16 µM) was 15.5% and 20.5% and 13.3%. The viability, T/C (compound 10 µM) is 10.3% and 16% and 14.4%.

Regarding `CC1COCCN1c1cc(C2(S(C)(=N)=O)CC2)nc(-c2ccnc3[nH]ccc23)n1` (stereo not given), the IC50 is 8060 nM and 2890 nM and 3410 nM. In addition, where the note is “compound 0.0316 µM”, the viability, T/C was 106% and 105% and 113%. The viability, T/C (compound 0.1 µM) is 112% and 97.5% and 98.7%. The viability, T/C (compound 0.316 µM) is 90.5% and 86.8% and 93.9%. For the same compound, the viability, T/C (compound 1 µM) was 70.6% and 57.9% and 68.7%. The viability, T/C (compound 3.16 µM) is 42% and 44.5% and 52%. For the setting “compound 10 µM”, the viability, T/C is 56.6% and 52.9% and 32.3%.

With `CCCS(=O)(=O)Nc1ccc(F)c(C(=O)c2c[nH]c3ncc(-c4ccc(Cl)cc4)cc23)c1F`, the IC50 is 6050 nM and 5240 nM and 4970 nM. Besides, the viability, T/C (compound 0.0316 µM) was 77.1% and 111% and 98.1%. Moreover, the viability, T/C (compound 0.1 µM) is 88.1% and 101% and 79.8%. For the same compound, for the setting “compound 0.316 µM”, the viability, T/C is 101% and 93.3% and 103%. In addition, the viability, T/C (compound 1 µM) was 123% and 91.3% and 106%. For the same compound, under “compound 3.16 µM”, the viability, T/C was 93.8% and 70.6% and 69.6%. For the same compound, the viability, T/C (compound 10 µM) is 15.7% and 25% and 19.7%.

`CC[C@@]1(O)C(=O)OCc2c1cc1n(c2=O)Cc2cc3c(CN(C)C)c(O)ccc3nc2-1`: the IC50 was 17.6 nM and 32.8 nM and 22.1 nM. Further, the viability, T/C (compound 0.000316 µM) was 86.1% and 53.9% and 105%. Also, under “compound 0.001 µM”, the viability, T/C was 101% and 95.2% and 87.8%. The viability, T/C (compound 0.00316 µM) was 86.5% and 108% and 111%. Also, for the setting “compound 0.01 µM”, the viability, T/C is 71.5% and 74% and 68.2%. Moreover, where the note is “compound 0.0316 µM”, the viability, T/C was 28% and 52% and 41.7%. Further, the viability, T/C (compound 0.1 µM) is 13.2% and 9.44% and 10.1%.

Take `CCc1c2c(nc3ccc(O)cc13)-c1cc3c(c(=O)n1C2)COC(=O)[C@]3(O)CC`: the IC50 is under 3.16 nM. Moreover, the viability, T/C (compound 0.00316 µM) is 17% and 30.3% and 19.5%. Further, the viability, T/C (compound 0.01 µM) is 6.95% and 12.2% and 10.6%. For the setting “compound 0.0316 µM”, the viability, T/C is 5.85% and 6.99% and 4.96%. Besides, the viability, T/C (compound 0.1 µM) was 3.9% and 5.58% and 5.13%. For the same compound, the viability, T/C (compound 0.316 µM) was 3.05% and 4.94% and 3.67%. Also, for the setting “compound 1 µM”, the viability, T/C is 1.76% and 2.96% and 1.2%.

With `CCc1cc2c(N3CCc4c(cc(Cn5ccnc5)cc4-c4cn(C)nc4C(F)(F)F)C3=O)cc(C)nc2c(OC)n1`, the IC50 was over 10000 nM. In addition, the viability, T/C (compound 0.0316 µM) is 79% and 66% and 74.7%. The viability, T/C (compound 0.1 µM) was 78.9% and 75.4% and 75.9%. Also, the viability, T/C (compound 0.316 µM) is 90.3% and 75% and 87.3%. Also, the viability, T/C (compound 1 µM) is 93.3% and 71.1% and 84.3%. Besides, the viability, T/C (compound 3.16 µM) was 74.8% and 70.8% and 89.7%. In addition, for the setting “compound 10 µM”, the viability, T/C is 72% and 68.3% and 85.2%.

These data come from PubChem BioAssay AID1963827 (Molecular Pharmacology Branch, DTP, NCI, 2024).
